For series [1], the system named is Caco-2 cells. As to the kind of experiment: CellTiter-Glo cell viability assay, Caco-2 cells.
Series [2] relates to Jurkat cells. As to the kind of experiment: CellTiter-Glo cell viability assay, Jurkat cells. In general terms: In ATP-based viability assays light output follows the ATP content of the culture.
Series [3] has as its target T1, CD2–CD58 interaction (adhesion between T cells (Jurkat, CD2) and Caco-2 cells (CD58)) (Homo sapiens, UniProt P19256).
T1 sequence (P19256 29-250): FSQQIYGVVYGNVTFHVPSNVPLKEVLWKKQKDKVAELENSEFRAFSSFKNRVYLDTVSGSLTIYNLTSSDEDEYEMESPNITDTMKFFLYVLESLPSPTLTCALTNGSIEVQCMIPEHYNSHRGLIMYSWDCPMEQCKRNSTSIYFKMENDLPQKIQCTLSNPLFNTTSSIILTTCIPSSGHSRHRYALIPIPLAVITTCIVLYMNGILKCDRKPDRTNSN
Kind of series: Lymphocyte-epithelial adhesion assay. The class given is cell-based. The conditions noted are these: concentration range 0.0005 to 150 µM.

Here are results for two molecules from publication PMC3171192 (Journal of medicinal chemistry, 2011).

*1 amine or outer side, *2 acyl side, *3 side chain or, on linkers, in order; H or OH if unused. Where a SMILES comes first, the peptide text is derived from it. [ ]: non-standard residue; d: D form. X1 = O=C(CCc1cccc2c1oc1c(CCN[*:1])cccc12)[*:2]

With `CC[C@H](C)[C@@H]1NC(=O)[C@H](Cc2ccc(O)cc2)NC(=O)[C@H](CC(=O)O)NC(=O)CCc2cccc3c2Oc2c(cccc2-3)CCNC(=O)[C@H](CC(=O)O)NC(=O)[C@H](CC(=O)O)NC(=O)[C@H](CCCCN)NC1=O` [Peptide 7] (cyclo(DD[X1]DYIK)), the “toxicity effects on Caco-2 cells” value in series [1] is listed as “did not show any toxicity effects”. In addition, in series [2], the “toxicity effects on T cells” value is on record as “did not show any toxicity effects”.

In the case of KGKTDAISVKAI-NH2 [control peptide], the “cell adhesion inhibition in the lymphocyte epithelial assay” value in series [3] is approximately 18%.
